Assay results taken from patent publication US5114843A, “Humoral hypercalcemic factor antagonists” (Merck & Co., Inc., priority 1991, dated 1992).

Molecular target: T1, Bovine renal cortical plasma membranes (Bos taurus, UniProt Q1LZF7)
T1 construct: from tissue; host or cells: bovine renal cortex plasma membranes
T1 sequence (Q1LZF7 29-589): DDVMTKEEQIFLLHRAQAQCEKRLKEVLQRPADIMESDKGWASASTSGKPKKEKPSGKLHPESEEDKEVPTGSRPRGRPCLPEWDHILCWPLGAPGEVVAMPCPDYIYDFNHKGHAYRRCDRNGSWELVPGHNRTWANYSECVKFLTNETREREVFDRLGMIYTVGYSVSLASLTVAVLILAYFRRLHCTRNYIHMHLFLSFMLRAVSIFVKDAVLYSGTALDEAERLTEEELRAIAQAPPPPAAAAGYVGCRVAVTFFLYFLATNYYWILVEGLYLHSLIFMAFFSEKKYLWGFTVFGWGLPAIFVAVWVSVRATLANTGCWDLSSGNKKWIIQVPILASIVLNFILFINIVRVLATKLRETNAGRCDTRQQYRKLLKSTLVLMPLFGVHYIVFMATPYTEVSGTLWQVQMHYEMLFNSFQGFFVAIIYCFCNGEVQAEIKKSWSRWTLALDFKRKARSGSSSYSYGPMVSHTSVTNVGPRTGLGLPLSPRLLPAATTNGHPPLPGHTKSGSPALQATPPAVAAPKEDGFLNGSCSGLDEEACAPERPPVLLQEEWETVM
Test: HCF binding (receptor) assay with [Nle8,18,(125I)-Tyr34]bPTH(1-34)NH2 radioligand
Settings: radioligand [Nle8,18,(125I)-Tyr34]bPTH(1-34)NH2, 30 min at 21° C
Experimental: HCF analogues were analysed in a new receptor assay (Goldman et al., Endocrinol. (1988) 123: 1468-1475) which modified the assay reported in Rosenblatt et al., Endocrin. 107: 545-550 (1980). The binding assay used [Nle^8,18 (^125 I)-Tyr^34 ]bPTH (1-34)NH2 which was purified by HPLC (Novapak C18, 32-35% CH3 CN in 0.1% TFA) and was stored as aliquots in 25 mM TrisHCl/1%BSA at -70° C. Bovine renal cortical plasma membranes were incubated with radioligand (25,000 cpm) in the absence or presence of HCF analogues in a Tris-containing buffer (250 μl) for 30 min. at 21° C. Once equilibrium was reached, bound and free radioligand were separated by centrifugation.
High specific binding (85%) to bovine renal cortical membranes was obtained consistently.

SMILES: CC[C@H](C)[C@H](NC(=O)[C@H](CC(C)C)NC(=O)[C@H](Cc1c[nH]cn1)NC(=O)[C@H](Cc1c[nH]cn1)NC(=O)[C@H](CC(C)C)NC(=O)[C@H](Cc1ccccc1)NC(=O)[C@H](Cc1ccccc1)NC(=O)[C@H](CCCNC(=N)N)NC(=O)[C@H](CCCNC(=N)N)NC(=O)[C@H](CCCNC(=N)N)NC(=O)[C@H](CC(C)C)NC(=O)[C@H](CC(=O)O)NC(=O)[C@H](CCC(N)=O)NC(=O)[C@@H](NC(=O)[C@@H](N)CO)[C@@H](C)CC)C(=O)N[C@@H](C)C(=O)N[C@@H](CCC(=O)O)C(=O)N[C@H](C(=O)N[C@@H](Cc1c[nH]cn1)C(=O)N[C@H](C(=O)N[C@@H](C)C(N)=O)[C@@H](C)O)[C@@H](C)CC [hHCF(14-34)NH2]
- Ki: 1.4 ± 0.083 µM
